Test [1] deals with T1, CCK-B receptor (Rattus norvegicus, UniProt P30553).
T1 construct: the whole brain was immediately excised from each of the cut heads and homogenized; from tissue; host or cells: SD rat whole brain, membrane preparation
Put plainly: Binding action upon CCK-B receptor ([125I]BH.CCK-8, rat whole brain membrane). On the set-up: species or system SD rat. Particulars: [125I]BH.CCK-8, 25° C., 120 min, pH 6.5. As to the method:
Measurement of the binding action upon CCK-B receptor:
About 100 heads of SD rats were decapitated without anesthesia, the whole brain was immediately excised from each of the cut heads and homogenized in 10-fold volume of 0.32M aqueous solution of sucrose by the use of a Teflon-coated homogenizer, the homogenate thus obtained was centrifuged for ten minutes at 900 g by the use of a cooled centrifuge, and the supernatant was further centrifuged for 15 minutes at 11500 g. The precipitate thus obtained was dispersed in 50 mM Tris-HCl buffer (pH 7.4) containing 0.08% Triton X-100, this suspension was allowed to stand for 30 minutes and again centrifuged for 15 minutes at 11500 g, the precipitate thus obtained was washed twice with 5 mM Tris-HCl buffer and twice with 50 mM Tris-HCl buffer in that order through centrifugal separation, the washed precipitate was suspended in 50 mM Tris-HCl buffer, and the suspension thus obtained was freeze-stored at -80° C., thus giving membrane preparation.
The membrane preparation was molten at room temperature, diluted with 10 mM HEPES buffer (containing 130 mM NaCl, 5 mM MgCl2, 1 mM EGTA and 0.25 mg/ml bacitracin; pH 6.5) and incubated at 25° C. for 120 minutes in the presence of [^125 I]BH.cndot.CCK-8, and B/F separation was performed by suction filtration. Nonspecific binding was determined in the presence of 1 μM CCK-8. The amount of labelled ligand bound to the receptor was measured by the use of a […]; Ki (CCK-B) values were determined from the binding inhibition curve of the test sample, with the maximum amount of labelled ligand bound to the receptor being set as 100%.

Test [2] has as its system gastric-acid secretion caused by the stimulus of pentagastrin. Put plainly: Depression of gastric-acid secretion caused by the stimulus of pentagastrin. Type of test: in vivo. Particulars: Rattus norvegicus, iv; SD rats, urethane anesthetized, i.v. test drug, pentagastrin 15 μg/kg/hr i.v. The source says: Measurement of the action of depressing the gastric-acid secretion caused by the stimulus of pentagastrin:
A cannula was inserted into the trachea of a rat anesthetized with urethane (intraperitoneally administered in an amount of 1.25 g/kg), its abdominal wall was incised to expose the gastric and duodenal portions, and a polyethylene cannula was set at the anterior stomach after ligation of the cardia. The duodenum was then subjected to slight section, a polyethylene cannula was inserted from the incised portion toward the stomach, and the pylorus was ligated to fix the cannula.
Physiological saline (with pH adjusted to 7.0) was flown from the anterior stomach toward the pylorus at a speed of 3 ml/min, and the gastric-acid secretion was measured by continuous titration of the flown saline by the use of a pH-stat (AUT-201; product of Toa Electronics, Ltd.). The continuous titration was carried out by using 25 mM caustic soda solution until the pH reached 7.0, and the result was expressed as the amount of gastric acid secreted for every ten minutes (μEq /10 min.). Pentagastrin was intravenously administered at a rate of 15 μg/kg/hr. The secretion of gastric acid increased upon administration of pentagastrin, reaching the maximum level after 60 minutes and stably maintaining this level after that. […]

Test [3] has as its system CCK-A receptor vs CCK-B receptor. Put plainly: Selectivity for CCK-B receptor by comparison with binding to CCK-A receptor (rat pancreas membrane, [3H]L-364,718). Also on record: species or system SD rat. Particulars: rat pancreas (CCK-A) vs rat brain (CCK-B). The protocol:
Measurement of selectivity for CCK-B receptor by comparison with the binding to CCK-A receptor in rats:
The pancreas of an SD rat was homogenized in 20-fold volume of 50 mM Tris-HCl buffer (pH 7.7) by the use of a Polytrone-type homogenizer, the homogenate was twice centrifuged for 10 minutes at 50000 g by the use of an ultracentrifuge, the precipitate thus obtained was suspended in 40-fold volume of 50 mM Tris-HCl buffer (containing 0.2% BSA, 5 mM MgCl2, 0.1 mg/ml bacitracin and 5 mM DTT; pH 7.7), and the suspension was freeze-stored at -80° C., thus giving membrane preparation.
The membrane preparation was then molten at room temperature, diluted ten times with the buffer and incubated at 37° C. for 30 minutes in the presence of [^3 H]L-364, 718, and B/F separation was performed by suction filtration. Nonspecific binding was determined in the presence of 1 μM L-364, 718. The amount of labelled ligand bound to the receptor was measured by the use of a liquid scintillation counter; Ki (CCK-A) values were determined from the binding inhibition curve of the test sample, with the maximum amount of labelled ligand bound to the receptor being set as 100%.
The Ki (CCK-A)/Ki (CCK-B) value of the present compound can be calculated from the above test. The higher the value of Ki (CCK-A)/Ki (CCK-B), the higher will be the selectivity to the CCK-B receptor.

The test system of test [4] is benzodiazepine receptor. Put plainly: Binding to the benzodiazepine receptor. Particulars: even at 10 μM.

Molecules are shown by their SMILES.

T1 sequence (P30553 whole entry): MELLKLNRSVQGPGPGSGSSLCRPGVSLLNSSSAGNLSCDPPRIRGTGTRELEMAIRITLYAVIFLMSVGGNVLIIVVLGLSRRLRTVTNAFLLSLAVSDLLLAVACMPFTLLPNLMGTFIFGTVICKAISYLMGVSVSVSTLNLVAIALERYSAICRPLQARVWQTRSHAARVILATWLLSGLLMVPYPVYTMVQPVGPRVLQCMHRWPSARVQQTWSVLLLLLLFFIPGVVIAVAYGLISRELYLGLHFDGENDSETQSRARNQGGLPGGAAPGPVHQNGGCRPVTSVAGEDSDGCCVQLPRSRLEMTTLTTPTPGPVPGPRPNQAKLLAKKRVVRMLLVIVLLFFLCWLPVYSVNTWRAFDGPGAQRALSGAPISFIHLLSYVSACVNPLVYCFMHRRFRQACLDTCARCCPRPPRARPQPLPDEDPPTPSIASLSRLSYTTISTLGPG

The term Ki denotes the equilibrium dissociation constant of an inhibitor or competing ligand from its target. Read a high Ki as a looser hold on the target. As a reminder, the ED50 is the midpoint of the dose-response relation. Regarding `Cc1cccc(NC(=O)NC2N=C(c3ccccc3)c3ccccc3N(CC(=O)c3ccccc3C)C2=O)c1` (stereo not shown) [Example 2, 1-[2,3-dihydro-1-(2'-methylphenacyl)-2-oxo-5-phenyl-1H-1,4-benzodiazepin-3-yl]-3-(3-tolyl)urea], the Ki in test [1] was determined as 0.15 nM. In test [2], this molecule gave an ED50 of 0.03 µmol/kg. Also, the “Ki (CCK-A)/Ki (CCK-B), selectivity for the CCK-B receptor” value in test [3] worked out at 1733 fold.
Regarding `Cc1ccc(C(=O)CN2C(=O)C(NC(=O)Nc3cccc(C)c3)N=C(c3ccccc3)c3ccccc32)cc1` (stereo not shown) [Example 7, 1-[2,3-Dihydro-1-(4'-methylphenacyl)-2-oxo-5-phenyl-1H-1,4-benzodiazepin-3-yl]-3-(3-tolyl)urea], the Ki in test [1] came to 0.22 nM. Further, the “Ki (CCK-A)/Ki (CCK-B), selectivity for the CCK-B receptor” value in test [3] amounted to 864 fold.
As for `Cc1cccc(NC(=O)NC2N=C(c3ccccc3)c3ccccc3N(CC(=O)c3sccc3C)C2=O)c1` (stereo not shown) [Example 13, 1-[2,3-Dihydro-1-(3-methyl-2-thenoyl)methyl-2-oxo-5-phenyl-1H-1,4-benzodiazepin-3-yl]-3-(3-tolyl)urea], the affinity in test [1], expressed as Ki, was 0.16 nM.
On to `Cc1cccc(NC(=O)N[C@@H]2N=C(c3ccccc3)c3ccccc3N(CC(=O)c3ccccc3C)C2=O)c1` [Example 16, (R)-1-[2,3-dihydro-1-(2'-methylphenacyl)-2-oxo-5-phenyl-1H-1,4-benzodiazepin-3-yl]-3-(3-tolyl)urea], for which the “binding action to the benzodiazepine receptor (in words)” value in test [4] is “no binding action at all”.

These data come from patent publication US5541182A, “Benzodiazepine aryl urea derivatives” (Yamanouchi Pharmaceutical Co., Ltd., priority 1990, dated 1996).
